Like-named read-outs stand apart in the source and are kept apart here.
What was measured:
[1] = target: wild type MLL1 four-member complex (MLL1-4C) (Homo sapiens, UniProt Q03164); assay: MLL1 LC-MS Assay; format: biochemical
Protocol: The compounds of the present disclosure were serially and separately diluted 3-fold in DMSO to obtain a total of eight or twelve concentrations. Then the test compounds at each concentration (120 nL of each) were transferred by Mosquito into white Proxiplate plus 384-well microplate (PerkinElmer). Solutions (6 μL) of 60 nM wild type MLL1 four-member complex (MLL1-4C) and 5 μM SAM in the reaction buffer (20 mM Tris-HCl, pH 8.0, 0.01% Tween 20, 1 mM DTT, 10 mM MgCl2, 0.01% BSA) were added to the wells that were then incubated with the test compound for 20 min. A 6 μL solution of 20 μM of the peptide substrate H3K4me0 (histone H3[1-21]-Biotin) in the reaction buffer was added to initiate each reaction. The final components in the reaction solution include 30 nM MLL1-4C, 2.5 μM SAM, and 10 μM H3K4me0 with varying concentration of the compounds. A positive control consisted of 30 nM MLL1-4C, 2.5 μM SAM, and 10 μM substrate in the absence of the test compound, and a negative control consisted of 2.5 μM SAM, and 10 μM substrate only. Each reaction was incubated at rt for 120 min, then stopped by addition of 3 μL per of quench solution (2.5% TFA with 320 nM d4-SAH). The reaction mixture was centrifuged (Eppendorf centrifuge 5810, Rotor A-4-62) for 2 min at 2000 rpm. The SAH production from the enzymatic assays were monitored by LC-MS/MS on an API 4000 triple quadrupole mass spec with Turbolon Spray (Applied Biosystem) coupled with Prominenece UFLC (Shimazu). The level of SAH production were then normalized based on the values coming from the positive and negative controls to give percent enzyme activities. The data were then fit to a dose response equation using the program Helios (Novartis) to get the IC50 values of the test compounds.

[2] = system: H3K4me3 in MV4-11 cells; assay: MV4-11 H3K4me3 Cellular ELISA Assay; format: cell-based; conditions: Homo sapiens, MV4-11, 48 h
Protocol: MV4-11 H3K4me3 Cellular ELISA Assay
MV4-11 (ATCC® CRL-9591™) was cultured with RPMI1640 medium (Thermo Fisher Scientific, cat #11875) supplemented with 10% FBS (Thermo Fisher Scientific, cat #10099141) and 50 U/ml Penicillin-Streptomycin (Thermo Fisher Scientific, cat #10378016) in humidified incubator at 37° C., 5% CO2.
200 nL compounds dissolved in DMSO were serially diluted at 1:3 ratio for 12 points starting from 10 mM and dispensed into each wells of cell culture plates (PDL-coated ViewPlate-384 Black, FTC, PerkinElmer, #6007710). 3,750 MV4-11 cells in 40 μL culture medium were seeded into each well and treated with desired concentration for 48 hours. After treatment, wash cells with cold phosphate based buffer (PBS, pH 7.4) and aspirate the remaining PBS buffer. Crude histone lysate was extracted by 40 μL 0.5M HCl for 1 hour in 4° C. following neutralization by adding 32 μL neutralization buffer (0.5M Sodium phosphate dibasic, pH ˜12.5, 1.25 mM Dithiothreitol, Promega #V3151, Protease Inhibitor Cocktail, Sigma #8340) for each well. 5 μL and 20 μL of histone lysate was loaded to ELISA plate (384 Well Plates, PE HB, White, 6005620) for detection of total H3 and H3K4me3, respectively. Shake the plates gently in 4° C. for overnight. After histone binding, plates were washed with 80 μL PBS/T (PBS with 0.05% Tween-20) and blocked with 50 μL 3% BSA diluted in PBS/T per well for 1 hour. Incubate wells with primary antibody for 1 hour at room temperature using anti-H3K4me3 (CST #9727) and anti-total H3 (CST #9715) diluted 1:2000 in 3% BSA. Plates were then washed with PBS/T for 3 times and incubated with horseradish peroxidase (HRP) conjugated secondary antibody (CST #7074, 1:5000) for 1 hour at room temperature. The abundance of H3K4me3 and total H3 were measured by ECL substrates chemiluminescence (Pierce, #34080) on a plate reader (PerkinElmer EnVison 2104 Mutilable Reader). Percentage inhibition was calculated against DMSO control after normalization of H3K4me3 signal to H3 signal for individual samples. The data were then fit to a dose response curve using GraphPad Prism for IC50 calculation.

[3] = system: MV4-11 cells; assay: MV4-11 6-Day Cell Growth CTG (CellTiter-Glo) Assay; format: cell-based; conditions: Homo sapiens, MV4-11, 144 h, MV4-11 cell growth CellTiter-Glo, 6 days
Protocol: MV4-11 6-Day Cell Growth CTG (CellTiter-Glo) Assay
Acute myeloid leukemia cell MV4-11 (ATCC® CRL-9591™) was cultured with RPMI 1640 medium (Thermo Fisher Scientific, cat #11875) supplemented with 10% FBS (Thermo Fisher Scientific, cat #10099141) in humidified incubator at 37° C., 5% CO2. To assess the effect of MLL1 inhibition on cell growth, the compound of the present invention was dissolved in DMSO and serially diluted at 1:3 for 12 points starting from 10 mM then 200 nL for the replicate of each dose per well was dispensed to Viewplate-384 Black (Perkin Elmer). Exponentially growing MV4-11 cells were seeded at the density of 300 cells per well in 40 μL to the plate, so the final compound working concentration starts from 50 μM. After 6 days, 40 μL CellTiter-Glo (Promega, cat #G7573) was added into the cell culture well and luminescence was read with Envision (Perkin Elmer) to determine the viable cells. The percentage inhibition was calculated against the samples treated with DMSO only and the data were used for dose response curve fitting in GraphPad Prism to get the IC50 of representative compound of present invention, which reflects the inhibition of MLL1 activity.

SMILES | IC50 ([1]; read-out: LCMS) | IC50 [2] | IC50 [3] | IC50 ([1]; read-out: MLL1 LCMS)
Nc1ncnc2c1ncn2Cc1c(N2CC[C@](N)(C(=O)NC3CC3)C2)ccc(F)c1CN1CC[C@@H](F)C1 [Example 50] | < 50 nM | < 1900 nM | < 2000 nM | 
COCc1c(F)ccc(N2CC[C@](N)(C(=O)NC3CC3)C2)c1Cn1cnc2c(N)ncnc21 [Example 77, (R)-3-amino-1-(2-((6-amino-9H-purin-9-yl)methyl)-4-fluoro-3-(methoxymethyl)phenyl)-N-cyclopropylpyrrolidine-3-carboxamide] | 50 to 100 nM | < 1900 nM | < 2000 nM | 
Nc1ncnc2c1ncn2Cc1c(N2CC[C@](N)(C(=O)NC3CC3)C2)ccc(F)c1CNC1CC1 [Example 54] | > 100 nM | < 1900 nM | < 2000 nM | 
Nc1ncnc2c1ncn2Cc1c(N2CC[C@](N)(C(=O)NC3CC3)C2)cc(CN2CCOCC2)c(F)c1Cl [Example 103, (R)-3-amino-1-(2-((6-amino-9H-purin-9-yl)methyl)-3-chloro-4-fluoro-5-(morpholinomethyl)phenyl)-N-cyclopropylpyrrolidine-3-carboxamide] | < 50 nM | < 1900 nM | < 2000 nM | 
Nc1ncnc2c1ncn2Cc1c(N2CC[C@](N)(C(=O)NC3CC3)C2)ccc(F)c1CC(F)(F)F [Example 6] | < 50 nM | < 1900 nM | < 2000 nM | 
CCc1cc(-c2cnccn2)cc(N2CC[C@](N)(C(=O)NC3CC3)C2)c1Cn1cnc2c(N)ncnc21 [Example 100, (R)-3-amino-1-(2-((6-amino-9H-purin-9-yl)methyl)-3-ethyl-5-(pyrazin-2-yl)phenyl)-N-cyclopropylpyrrolidine-3-carboxamide] | < 50 nM | < 1900 nM | < 2000 nM | 
Nc1ncnc2c1ncn2Cc1c(N2CC[C@](N)(C(=O)NC3CC3)C2)ccc(F)c1CN1CCC(F)CC1 [Example 56] | 50 to 100 nM | < 1900 nM | < 2000 nM | 
CC1(C)CCN(Cc2c(F)ccc(N3CC[C@](N)(C(=O)NC4CC4)C3)c2Cn2cnc3c(N)ncnc32)C1 [Example 63] | > 100 nM | < 1900 nM | < 2000 nM | 
CCc1cc(-c2cscn2)cc(N2CC[C@](N)(C(=O)NC3CC3)C2)c1Cn1cnc2c(N)ncnc21 [Example 98, (R)-3-amino-1-(2-((6-amino-9H-purin-9-yl)methyl)-3-ethyl-5-(thiazol-4-yl)phenyl)-N-cyclopropylpyrrolidine-3-carboxamide] | 50 to 100 nM | < 1900 nM | < 2000 nM | 
CCc1cc(Cl)cc(N2CC[C@](N)(C(=O)NC(C)C)C2)c1Cn1cnc2c(N)ncnc21 [Example 161] |  | < 1900 nM | < 2000 nM | < 50 nM
Nc1ncnc2c1ncn2Cc1c(N2CC[C@](N)(c3nnn[nH]3)C2)ccc(Cl)c1I [Example 156] |  | < 1900 nM | < 2000 nM | 50 to 100 nM
CCc1c(F)ccc(N2CC[C@](N)(C(=O)NC3CC3)C2)c1Cn1cnc2c(N)ncnc21 [Example 10] | < 50 nM | < 1900 nM | < 2000 nM | 
Nc1ncnc2c1ncn2Cc1c(N2CC[C@](N)(C(=O)NC3CC3)C2)ccc(F)c1CN1CCCCC1 [Example 46] | 50 to 100 nM | < 1900 nM | < 2000 nM | 
CN(C)Cc1c(F)ccc(N2CC[C@](N)(C(=O)N[C@H]3C[C@@H]3c3ccccc3)C2)c1Cn1cnc2c(N)ncnc21 [Example 49] | < 50 nM | < 1900 nM | < 2000 nM | 
Nc1ncnc2c1ncn2Cc1c(N2CC[C@](N)(C(=O)NC3CC3)C2)ccc(F)c1CN1C[C@H]2CC[C@@H](C1)O2 [Example 58] | 50 to 100 nM | < 1900 nM | < 2000 nM | 

Next, values leading:

IC50 ([1]; read-out: LCMS) | IC50 [2] | IC50 [3] | IC50 ([1]; read-out: MLL1 LCMS) | SMILES
50 to 100 nM | < 1900 nM | < 2000 nM |  | Nc1ncnc2c1ncn2Cc1c(N2CC[C@](N)(C(=O)NC3CC3)C2)ccc(Cl)c1COC1CCOC1 (stereo partly drawn) [Example 79]
< 50 nM | < 1900 nM | < 2000 nM |  | CCc1cc(Cl)cc(N2CC[C@](N)(c3nc[nH]n3)C2)c1Cn1cnc2c(N)ncnc21 [Example 25]
 | < 1900 nM | < 2000 nM | 50 to 100 nM | COc1ccc(N2CC[C@](N)(C(=O)NC3CC3)C2)c(Cn2cnc3c(N)ncnc32)c1Br [Example 168]
< 50 nM | < 1900 nM | < 2000 nM |  | Nc1ncnc2c1ncn2Cc1c(N2CC[C@](N)(C(=O)NC3CC3)C2)ccc(F)c1Br [Example 13]
50 to 100 nM | < 1900 nM | 2000 to 3000 nM |  | Nc1ncnc2c1ncn2Cc1c(N2CC[C@](N)(C(=O)NC3CC3)C2)ccc(F)c1CO [Example 76, (R)-3-amino-1-(2-((6-amino-9H-purin-9-yl)methyl)-4-fluoro-3-(hydroxymethyl)phenyl)-N-cyclopropylpyrrolidine-3-carboxamide]
< 50 nM | < 1900 nM | < 2000 nM |  | Cc1c(C(F)(F)F)ccc(N2CC[C@](N)(C(=O)NC3CC3)C2)c1Cn1cnc2c(N)ncnc21 [Example 11]
 | < 1900 nM | < 2000 nM | 50 to 100 nM | CCc1c(Cl)ccc(N2CC[C@](N)(C(=O)NC3CC3)C2)c1Cn1cnc2c(N)ncnc21 [Example 165]
< 50 nM | < 1900 nM | < 2000 nM |  | CCc1cc(-c2ccccc2F)cc(N2CC[C@](N)(C(=O)NC3CC3)C2)c1Cn1cnc2c(N)ncnc21 [Example 92, (R)-3-amino-1-(4-((6-amino-9H-purin-9-yl)methyl)-5-ethyl-2′-fluoro-[1,1′-biphenyl]-3-yl)-N-cyclopropylpyrrolidine-3-carboxamide]
50 to 100 nM | < 1900 nM | 2000 to 3000 nM |  | Nc1ncnc2c1ncn2Cc1c(Br)c(Cl)c2c(c1N1CC[C@](N)(C(=O)NC3CC3)C1)CCC2 (stereo in doubt) [Example 42]
> 100 nM | < 1900 nM | 2000 to 3000 nM |  | Nc1ncnc2c1ncn2Cc1c(N2CC[C@](N)(C(=O)NC3CC3)C2)ccc(F)c1C(O)C(F)(F)F (single isomer, unassigned) [Example 82]
50 to 100 nM | < 1900 nM | > 3000 nM |  | Nc1ncnc2c1ncn2Cc1c(CC(F)(F)F)cc(Cl)cc1N1CC[C@](N)(C(=O)NC2CC2)C1 [Example 7]
50 to 100 nM | < 1900 nM | < 2000 nM |  | Nc1ncnc2c1ncn2Cc1c(N2CC[C@](N)(C(=O)NCc3cccnc3O)C2)ccc(F)c1C(F)(F)F [Example 120]
